In ChEMBL document CHEMBL2074564, “P-glycoprotein interactions of nefazodone and trazodone in cell culture” (J Clin Pharmacol, 2001):

How the values were obtained:
Type in all cases: functional, cell-based
[1] = target: T1, ATP-dependent translocase ABCB1 (Homo sapiens, UniProt P08183); test: TP_TRANSPORTER: Western blot, LS180V cell
[2] = target: T1, ATP-dependent translocase ABCB1; test: TP_TRANSPORTER: transepithelial transport (basal to apical) in Caco-2 cells
[3] = target: T1, ATP-dependent translocase ABCB1; test: TP_TRANSPORTER: inhibition of Rhodamine 123 transepithelial transport (basal to apical) (R123: 5 uM) in Caco-2 cells

T1 sequence (P08183 whole entry): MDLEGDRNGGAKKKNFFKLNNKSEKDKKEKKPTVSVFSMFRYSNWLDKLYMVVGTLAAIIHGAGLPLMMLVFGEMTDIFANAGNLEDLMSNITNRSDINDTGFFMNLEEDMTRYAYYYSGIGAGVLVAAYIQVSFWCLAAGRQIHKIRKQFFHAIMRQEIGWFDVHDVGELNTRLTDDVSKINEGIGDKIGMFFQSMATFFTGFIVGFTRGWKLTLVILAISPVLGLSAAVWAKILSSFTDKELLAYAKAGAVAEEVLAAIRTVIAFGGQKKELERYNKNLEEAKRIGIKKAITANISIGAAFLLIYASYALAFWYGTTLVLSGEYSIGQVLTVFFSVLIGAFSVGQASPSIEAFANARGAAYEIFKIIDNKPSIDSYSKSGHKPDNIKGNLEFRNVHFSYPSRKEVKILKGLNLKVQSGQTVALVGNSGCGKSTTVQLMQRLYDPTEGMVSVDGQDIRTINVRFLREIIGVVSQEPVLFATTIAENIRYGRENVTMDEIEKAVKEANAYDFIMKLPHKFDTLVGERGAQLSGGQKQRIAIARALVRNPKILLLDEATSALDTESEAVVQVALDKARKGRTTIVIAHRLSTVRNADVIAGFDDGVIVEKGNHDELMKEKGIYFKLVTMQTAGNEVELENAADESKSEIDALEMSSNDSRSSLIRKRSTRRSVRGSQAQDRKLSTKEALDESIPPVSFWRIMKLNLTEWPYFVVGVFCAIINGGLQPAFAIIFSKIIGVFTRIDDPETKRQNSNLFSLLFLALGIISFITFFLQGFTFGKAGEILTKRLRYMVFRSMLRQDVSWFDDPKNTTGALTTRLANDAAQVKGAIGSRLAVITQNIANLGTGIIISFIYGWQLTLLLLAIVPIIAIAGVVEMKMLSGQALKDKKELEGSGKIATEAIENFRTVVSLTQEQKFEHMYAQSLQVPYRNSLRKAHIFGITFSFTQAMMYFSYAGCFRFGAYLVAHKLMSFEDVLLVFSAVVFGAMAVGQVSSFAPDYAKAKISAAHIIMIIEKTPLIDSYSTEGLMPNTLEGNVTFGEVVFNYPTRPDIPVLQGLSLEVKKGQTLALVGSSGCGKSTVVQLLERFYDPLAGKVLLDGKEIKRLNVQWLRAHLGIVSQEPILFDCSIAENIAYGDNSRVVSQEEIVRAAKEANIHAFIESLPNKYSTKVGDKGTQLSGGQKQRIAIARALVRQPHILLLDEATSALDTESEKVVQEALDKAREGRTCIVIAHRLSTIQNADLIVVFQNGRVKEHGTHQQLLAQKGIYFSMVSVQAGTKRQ

Row | Structure (SMILES) | Activity [1] | Activity [2] | IC50 [3]
1 | O=c1n(CCCN2CCN(c3cccc(Cl)c3)CC2)nc2ccccn12 [TRAZODONE] | inducer [+] |  | 
2 | CCc1nn(CCCN2CCN(c3cccc(Cl)c3)CC2)c(=O)n1CCOc1ccccc1 [NEFAZODONE] | inducer [+] | is not a substrate [-] | 4.7 µM
